Where a name gives a salt, the structure may show the parent alone.
Test: Sustained release of metformin hydrochloride, ranitidine hydrochloride, vitamin B1 and benzalkonium chloride from carrier formulations into purified water, UV absorbance
Assay type: physicochemical
Details: released when absorbance is increased less than 0.01
Source text: • 1) Test samples: formulation 5, formulation 6, formulation 7, formulation 8, formulation 9; • 2) Drug release medium: purified water (Wahaha®).
• 1) group F where the sample is 0.1990 g of formulation 6 and the medium is 30.11 g of purified water; • 2) group G where the sample is 0.2016 g of formulation 5 and the medium is 30.14 g of purified water; • 3) group H where the sample is 0.2087 g of formulation 7 and the medium is 30.11 g of purified water; • 4) group I where the sample is 0.2016 g of formulation 8 and the medium is 30.12 g of purified water; • 5) group J where the sample is 0.0975 g of formulation 9 and the medium is 30.18 g of purified water.
• 1) The test samples with different formulations were respectively introduced into 2 mL-syringes. 2) About 0.2 g of the test samples, but for benzalkonium chloride about 0.1 g of the test sample, were squeezed out from the syringes without a needle into 30 mL transparent bottles respectively. The tests samples in the bottles were accurately weighed. 3) 30.0 g of the drug release medium was added to each bottle. 4) The absorbance spectrum of the liquid in each bottle was scanned and the absorbance at the wavelength of 232 nm for metformin hydrochloride, 313 nm for ranitidine hydrochloride, 261 nm for vitamin B1, or 219 nm for benzalkonium chloride was measured every 24 hours. 5) In groups H, I and J, the purified water (Wahaha®) was used as the reference solution. In groups F and G, blank carriers in formulations 2 and 3 without metformin hydrochloride were used to prepare the reference solutions according to the above steps 1) to 3) of “4. Experimental method”. The liquids to be tested and the reference solutions of groups F and G were taken from the bottles with the carriers and put back to the bottles after the spectral scanning.

| Compound | Duration of release of the drug from the sustained-release carriers |
| --- | --- |
| benzalkonium chloride | about 4 days |
| Cc1ncc(C[n+]2csc(CCO)c2C)c(N)n1 [vitamin B1] | about 4 days |
| CNC(=C[N+](=O)[O-])NCCSCc1ccc(CN(C)C)o1 [ranitidine hydrochloride] | about 4 days |
| CN(C)C(=N)N=C(N)N [metformin hydrochloride] | about 3 days |
